For data set [1] the following is noted: cited from earlier work.
The next data set deals with KRT77. Put plainly: Upregulation of gene expression and/or activity, 1% naringenin: KRT77. An excerpt: (§1) In certain embodiments, administration of a composition comprising naringenin leads to up-regulation of LCE5A, KRT77, ALOXE3, KRT1, HPGD, MUCL1, CASP14, WFDC12, KRT10, DNASE1L2, IL37, SERPINB12, HAL, UPK1A, CALML5, LCE2B, and/or MIR205. In certain embodiments, administration of a composition comprising naringenin leads to down-regulation of CCL11, CSF2, IL23A, IL11, BMP6, IL13RA2, C2CD4A, NR4A2, C2CD4B, FGF2, FARP4, GDF15, THBS1, HSPA1A, PTGS2, and/or DKK1. Tables 10 and 11 provide data for upregulation and downregulation respectively of certain genes after administration of compositions comprising 1% naringenin.
Kertain 77 (KRT77) is involved in production of keratin. In particular, KRT77 encodes an epithelial keratin that is expressed in the skin and eccrine sweat glands. KRT77 encodes keratin 77, a member of the type II keratin family of intermediate filament proteins. Keratin 77 is also known as KRT1B, Type II cytoskeletal 1b, Type IT keratin Kb39, and cytokeratin 1B. In certain embodiments, upregulation of expression and/or activity of KRT77, results in enhanced keratin production. The increased keratin production contributes to increase in the skin barrier strength. In certain embodiments, the administration of composition comprising naringenin results in at least about 5 to about 20-fold upregulation of expression and/or activity of KRT77. […]

In the next data set the test system is FABP4. Put plainly: Downregulation of gene expression and/or activity, 1% naringenin: FABP4.
Source text: as §1
Fatty acid binding protein 4 (FABP4) plays a role in metabolic inflammation from the fat tissue. FABP4 acts at the interface of metabolic and inflammatory pathways in adipocytes and macrophages and plays important roles in the development of insulin resistance, diabetes mellitus, and atherosclerosis. In certain embodiments, downregulation of FABP4 leads to reduced metabolic inflammation from the fat tissue signaling. In certain embodiments, the administration of composition comprising naringenin results in at least about 2 to about 10-fold downregulation of expression and/or activity of FABP4. In certain embodiments, the administration of composition comprising naringenin results in at least about five (5) fold downregulation of expression and/or activity of FABP4.

A further data set deals with CASP14. In words: Upregulation of gene expression and/or activity, 1% naringenin: CASP14.
Source text: as §1
Cysteine-aspartic acid protease 14 (CASP14) plays a role in keratinocyte terminal differentiation, which is important for the formation of the skin barrier. In certain embodiments, administration of compositions comprising naringenin leads to upregulation of CASP14. In certain embodiments, this upregulation of CASP14 leads to the improved skin barrier formation. In certain embodiments, the administration of composition comprising naringenin results in at least about 5 to about 20-fold upregulation of expression and/or activity of CASP14. In certain embodiments, the administration of composition comprising naringenin results in at least about ten (10) fold upregulation of expression and/or activity of CASP14.

The test system of a further data set is C2CD4A. In words: Downregulation of gene expression and/or activity, 1% naringenin: C2CD4A. The following applies: negative = downregulation.
Source text: as §1

Another data set relates to MIR205. Put plainly: Upregulation of gene expression and/or activity, 1% naringenin: MIR205.
Source text: as §1
MicroRNA 205 (MIR205) plays a role in clearance of damaged cells. In certain embodiments, administration of compositions comprising naringenin leads to upregulation of MIR205, which leads to increase clearance of damaged cells. This increase in clearance of damaged cells leads to enhancement in cell turnover and/or recycling, which results in an improvement in anti-aging effect. […] In certain embodiments, the administration of composition comprising naringenin results in at least about 2 to about 10-fold upregulation of expression and/or activity of MIR205. In certain embodiments, the administration of composition comprising naringenin results in at least about five (5) fold upregulation of expression and/or activity of MIR205.

Another data set has as its system BMP6. In words: Downregulation of gene expression and/or activity, 1% naringenin: BMP6.
Source text: as §1
Bone morphogenetic protein 6 (BMP6) plays a role in wound healing. The protein encoded by this gene is a member of the TGFβ superfamily. Bone morphogenetic proteins are known for their ability to induce the growth of bone and cartilage. BMP6 may induce all osteogenic markers in mesenchymal stem cells. In certain embodiments, the administration of compositions comprising naringenin leads to downregulation of expression and/or activity of BMP6. […] In certain embodiments, this may also lead to anti-aging effect for the skin. In certain embodiments, the administration of composition comprising naringenin results in at least about 2 to about 20-fold downregulation of expression and/or activity of BMP6. […]

The subject of another data set is KRT1. Put plainly: Upregulation of gene expression and/or activity, 1% naringenin: KRT1.
Source text: as §1
Keratin 1 (KRT1) plays a role in maintaining the skin strength and resiliency. Keratin 1 is produced in keratinocytes in the outer layer of the skin (the epidermis), including the skin on the palms of the hands and soles of the feet. The keratin 1 protein partners with another keratin protein, either keratin 9 or keratin 10, to form molecules called keratin intermediate filaments. These filaments assemble into strong networks that provide strength and resiliency to the skin and protect it from being damaged by friction and other everyday physical stresses. In certain embodiments, the administration of composition comprising naringenin results in upregulation of KRT1, which has a role in enhancing the strength and resiliency of the skin. […]

A further data set concerns glutathione. The following applies: consumed orally; cited from earlier work.
For another data set, the system named is HAL. In words: Upregulation of gene expression and/or activity, 1% naringenin: HAL.
Source text: as §1

For another data set, the system named is FGF2. In words: Downregulation of gene expression and/or activity, 1% naringenin: FGF2. The following applies: negative = downregulation.
Source text: as §1

With `O=C1C[C@@H](c2ccc(O)cc2)Oc2cc(O)cc(O)c21` [naringenin, (2S)-5,7-Dihydroxy-2-(4-hydroxyphenyl)-2,3-dihydro-4H-1-benzopyran-4-one], the “Safety on oral ingestion” value in data set [1] is given as “generally considered safe for oral ingestion”. In addition, the “Fold-increase in expression and/or activity of KRT77” value with KRT77 is given as about 12 fold. In addition, the “fold downregulation in expression and/or activity of FABP4” value in the data set with FABP4 is on record as about 7 fold. In addition, in the data set on FABP4 (negative = downregulation), the “Fold-increase (downregulation table) FABP4” value was −7 fold. The “Fold-increase in expression and/or activity of CASP14” value in the data set on CASP14 was about 11 fold. Further, in the data set with C2CD4A, the “Fold-increase (downregulation table) C2CD4A” value is −10 fold. Moreover, the “Fold-increase in expression and/or activity of MIR205” value in the data set on MIR205 is about 6 fold. In addition, the “fold downregulation in expression and/or activity of BMP6” value with BMP6 was about 11 fold. Moreover, in the data set on BMP6 (negative = downregulation), the “Fold-increase (downregulation table) BMP6” value is on record as −11 fold. In addition, the “Fold-increase in expression and/or activity of KRT1” value in the data set with KRT1 is on record as about 7 fold. Besides, the Glutathione entry with glutathione is “increase”. Further, the “Fold-increase in expression and/or activity of HAL” value with HAL is 8 fold. The “Fold-increase (downregulation table) FGF2” value in the data set with FGF2 was −7 fold.

These data come from patent US20260294770A1, “FORMULATIONS OF NARINGENIN” (DEBUT BIOTECHNOLOGY, INC., priority 2023, published 2026).
